From the NIST ThermoML archive (doi:10.1016/j.jct.2013.10.034)

Assay: xn = mol fraction of the nth substance listed
Settings: 100 kPa, Liquid; for viscosity: Falling or rolling sphere viscometry; for mass density: Vibrating tube method

CCCC[N+]1(C)CCCC1.N#CN=C=[N-] [1-butyl-1-methylpyrrolidinium dicyanamide] + O
Settings	mass density, 298.15 K [kg/m3]	mass density, 303.15 K [kg/m3]	viscosity, 298.15 K [mPa·s]	viscosity, 303.15 K [mPa·s]	viscosity, 308.15 K [mPa·s]
x1 = 0.0729	1007.24	1004.74	4.316	3.713	3.226
x1 = 0.1652	1012.47	1009.29	7.983	6.795	5.903
x1 = 0.2234	1014.18	1010.84	9.939	8.502	7.346
x1 = 0.3163	1015.68	1012.43	12.88	11.02	9.521
x1 = 0.3548	1016.11	1012.9	13.94	11.96	10.37
x1 = 0.4198	1016.65	1013.55	15.86	13.57	11.73
x1 = 0.4762	1016.99	1014	17.41	14.9	12.88
x1 = 0.5239	1017.27	1014.32	18.57	15.9	13.75
x1 = 0.6244	1017.71	1014.87	21.49	18.37	15.87
x1 = 0.629	1017.73	1014.89	21.62	18.48	15.96
x1 = 0.711	1018.09	1015.28	24.03	20.5	17.69
x1 = 0.7413	1018.22	1015.41	24.99	21.31	18.34
x1 = 0.8776	1018.79	1015.96	29.68	25.19	21.64
x1 = 0.9732	1019.13	1016.28	33.6	28.4	24.32
x1 = 1	1019.2	1016.38	34.74	29.33	25.09
